Assay [1] has as its target T1, Dual specificity mitogen-activated protein kinase kinase 3 (Homo sapiens) (UniProt P46734).
T1 sequence (whole entry): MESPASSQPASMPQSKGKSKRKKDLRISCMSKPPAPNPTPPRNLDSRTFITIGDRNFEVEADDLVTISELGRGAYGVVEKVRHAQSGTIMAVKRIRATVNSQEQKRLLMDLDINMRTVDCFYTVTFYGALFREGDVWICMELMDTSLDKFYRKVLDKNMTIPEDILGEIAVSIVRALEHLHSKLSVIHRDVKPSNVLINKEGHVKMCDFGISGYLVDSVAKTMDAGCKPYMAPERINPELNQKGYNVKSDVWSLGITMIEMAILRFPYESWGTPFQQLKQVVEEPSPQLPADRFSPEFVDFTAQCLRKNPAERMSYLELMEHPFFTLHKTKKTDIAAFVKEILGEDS
Nature of the assay: Selectivity interaction (LanthaScreen Eu Kinase Binding Assay) EUB0001632a MAP2K3. Particulars: at 10 µM.

The target of assay [2] is T2, Ephrin type-B receptor 4 (Homo sapiens) (UniProt P54760).
T2 sequence (whole entry): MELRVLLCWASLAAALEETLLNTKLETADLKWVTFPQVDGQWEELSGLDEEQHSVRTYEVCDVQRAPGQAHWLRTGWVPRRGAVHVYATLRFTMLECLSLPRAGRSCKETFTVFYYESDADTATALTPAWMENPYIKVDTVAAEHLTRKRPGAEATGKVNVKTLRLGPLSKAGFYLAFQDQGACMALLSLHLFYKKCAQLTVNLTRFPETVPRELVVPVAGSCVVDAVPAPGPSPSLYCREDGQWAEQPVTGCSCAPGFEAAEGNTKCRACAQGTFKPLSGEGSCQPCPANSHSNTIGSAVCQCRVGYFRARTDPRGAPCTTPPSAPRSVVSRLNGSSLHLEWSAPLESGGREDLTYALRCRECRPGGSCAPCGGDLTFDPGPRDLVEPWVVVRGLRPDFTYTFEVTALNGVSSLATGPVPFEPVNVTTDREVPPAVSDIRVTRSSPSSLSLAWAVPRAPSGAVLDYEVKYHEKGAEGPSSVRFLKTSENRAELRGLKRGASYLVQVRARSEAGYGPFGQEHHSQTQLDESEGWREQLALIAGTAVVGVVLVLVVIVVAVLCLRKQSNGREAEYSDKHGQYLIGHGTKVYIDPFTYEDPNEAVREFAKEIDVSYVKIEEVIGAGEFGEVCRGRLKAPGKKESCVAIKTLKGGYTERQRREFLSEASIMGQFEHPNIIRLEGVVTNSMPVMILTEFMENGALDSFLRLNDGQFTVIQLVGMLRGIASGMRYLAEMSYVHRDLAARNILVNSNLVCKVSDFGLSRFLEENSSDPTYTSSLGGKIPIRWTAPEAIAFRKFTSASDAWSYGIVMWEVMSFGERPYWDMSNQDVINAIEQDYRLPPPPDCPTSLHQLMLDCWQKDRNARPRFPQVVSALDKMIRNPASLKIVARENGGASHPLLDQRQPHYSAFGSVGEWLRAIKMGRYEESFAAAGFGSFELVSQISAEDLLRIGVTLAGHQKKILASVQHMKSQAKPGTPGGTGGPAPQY
Nature of the assay: Selectivity interaction (KinomeScan (DiscoverX)) EUB0000595a EPHB4. Particulars: at 10 µM.

For assay [3], the target named is T3, Serine/threonine-protein kinase Nek11 (Homo sapiens) (UniProt Q8NG66).
T3 sequence (whole entry): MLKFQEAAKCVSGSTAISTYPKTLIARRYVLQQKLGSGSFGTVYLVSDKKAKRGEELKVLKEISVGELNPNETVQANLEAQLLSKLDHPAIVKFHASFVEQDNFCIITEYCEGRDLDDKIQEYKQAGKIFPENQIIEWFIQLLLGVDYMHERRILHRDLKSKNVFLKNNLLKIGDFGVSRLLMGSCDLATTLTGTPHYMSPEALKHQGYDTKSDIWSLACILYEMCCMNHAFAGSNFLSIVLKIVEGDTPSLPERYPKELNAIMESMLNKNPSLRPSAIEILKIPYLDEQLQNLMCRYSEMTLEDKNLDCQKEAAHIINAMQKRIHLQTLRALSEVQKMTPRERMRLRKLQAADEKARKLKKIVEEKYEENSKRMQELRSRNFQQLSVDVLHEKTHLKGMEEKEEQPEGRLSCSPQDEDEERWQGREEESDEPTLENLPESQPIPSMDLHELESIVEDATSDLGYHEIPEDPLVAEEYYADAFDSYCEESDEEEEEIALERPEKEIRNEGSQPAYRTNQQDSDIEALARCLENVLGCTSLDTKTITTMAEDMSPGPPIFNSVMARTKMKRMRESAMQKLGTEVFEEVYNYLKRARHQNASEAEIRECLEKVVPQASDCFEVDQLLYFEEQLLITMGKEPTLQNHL
Nature of the assay: Selectivity interaction (KinomeScan (DiscoverX)) EUB0000695a NEK11. The note with it: at 100 nM.

The target in assay [4] is STE20/SPS1-related proline-alanine-rich protein kinase (Homo sapiens) (UniProt Q9UEW8). Nature of the assay: Selectivity interaction (KinomeScan (DiscoverX)) EUB0001049a STK39. Particulars: at 1 µM.
The target in assay [5] is Calcium/calmodulin-dependent protein kinase type II subunit alpha (Homo sapiens, UniProt Q9UQM7). Nature of the assay: Selectivity interaction (Upstate Kinase Profiler service (Millipore, enzymatic assay)) EUB0000056c CAMK2A.
Assay [6] has as its target Serine/threonine-protein kinase PLK1 (Homo sapiens, UniProt P53350). Nature of the assay: Selectivity interaction (KinomeScan (DiscoverX)) EUB0000618a PLK1. Particulars: at 10 µM.
Assay [7] deals with Receptor tyrosine-protein kinase erbB-4 (Homo sapiens, UniProt Q15303). Nature of the assay: Selectivity interaction (Millipore kinase profiler) EUB0000124b ERBB4. Particulars: at 10 µM.
For assay [8], the target named is 5'-AMP-activated protein kinase catalytic subunit alpha-1 (Homo sapiens, UniProt Q13131). Nature of the assay: Selectivity interaction (Kinase panel (KiNativ target engagement assay in Jurkat cells)) EUB0001635a PRKAA1. It counts as cell-based. The note with it: Selectivity number of off-targets 0.0, Selectivity number of targets 233.0, Source Knowledge https://www.sciencedirect.com/science/article/pii/S2451945619300674?via%3Dihub, at 1 µM.

Data on 8 compounds can be found in ChEMBL document CHEMBL5465560, “Selectivity Literature for EUbOPEN Chemogenomic Library” (2024).

Sequence of 5'-AMP-activated protein kinase catalytic subunit alpha-1 (Q13131 whole entry, looked up): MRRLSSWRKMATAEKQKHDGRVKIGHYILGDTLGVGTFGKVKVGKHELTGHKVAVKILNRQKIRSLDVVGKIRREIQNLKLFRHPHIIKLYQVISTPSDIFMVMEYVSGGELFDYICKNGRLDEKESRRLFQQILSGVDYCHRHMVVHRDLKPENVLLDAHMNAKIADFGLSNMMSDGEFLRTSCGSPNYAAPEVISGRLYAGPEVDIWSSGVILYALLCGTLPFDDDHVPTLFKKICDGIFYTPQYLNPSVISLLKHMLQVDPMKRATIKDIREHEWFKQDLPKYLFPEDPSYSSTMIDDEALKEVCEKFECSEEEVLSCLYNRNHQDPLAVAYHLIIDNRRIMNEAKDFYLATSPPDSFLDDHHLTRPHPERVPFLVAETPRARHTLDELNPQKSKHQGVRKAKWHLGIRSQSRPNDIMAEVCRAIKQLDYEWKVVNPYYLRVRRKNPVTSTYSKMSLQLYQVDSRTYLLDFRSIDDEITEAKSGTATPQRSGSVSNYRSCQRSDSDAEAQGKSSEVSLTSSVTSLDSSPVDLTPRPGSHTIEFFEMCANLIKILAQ
Sequence of Receptor tyrosine-protein kinase erbB-4 (Q15303 whole entry): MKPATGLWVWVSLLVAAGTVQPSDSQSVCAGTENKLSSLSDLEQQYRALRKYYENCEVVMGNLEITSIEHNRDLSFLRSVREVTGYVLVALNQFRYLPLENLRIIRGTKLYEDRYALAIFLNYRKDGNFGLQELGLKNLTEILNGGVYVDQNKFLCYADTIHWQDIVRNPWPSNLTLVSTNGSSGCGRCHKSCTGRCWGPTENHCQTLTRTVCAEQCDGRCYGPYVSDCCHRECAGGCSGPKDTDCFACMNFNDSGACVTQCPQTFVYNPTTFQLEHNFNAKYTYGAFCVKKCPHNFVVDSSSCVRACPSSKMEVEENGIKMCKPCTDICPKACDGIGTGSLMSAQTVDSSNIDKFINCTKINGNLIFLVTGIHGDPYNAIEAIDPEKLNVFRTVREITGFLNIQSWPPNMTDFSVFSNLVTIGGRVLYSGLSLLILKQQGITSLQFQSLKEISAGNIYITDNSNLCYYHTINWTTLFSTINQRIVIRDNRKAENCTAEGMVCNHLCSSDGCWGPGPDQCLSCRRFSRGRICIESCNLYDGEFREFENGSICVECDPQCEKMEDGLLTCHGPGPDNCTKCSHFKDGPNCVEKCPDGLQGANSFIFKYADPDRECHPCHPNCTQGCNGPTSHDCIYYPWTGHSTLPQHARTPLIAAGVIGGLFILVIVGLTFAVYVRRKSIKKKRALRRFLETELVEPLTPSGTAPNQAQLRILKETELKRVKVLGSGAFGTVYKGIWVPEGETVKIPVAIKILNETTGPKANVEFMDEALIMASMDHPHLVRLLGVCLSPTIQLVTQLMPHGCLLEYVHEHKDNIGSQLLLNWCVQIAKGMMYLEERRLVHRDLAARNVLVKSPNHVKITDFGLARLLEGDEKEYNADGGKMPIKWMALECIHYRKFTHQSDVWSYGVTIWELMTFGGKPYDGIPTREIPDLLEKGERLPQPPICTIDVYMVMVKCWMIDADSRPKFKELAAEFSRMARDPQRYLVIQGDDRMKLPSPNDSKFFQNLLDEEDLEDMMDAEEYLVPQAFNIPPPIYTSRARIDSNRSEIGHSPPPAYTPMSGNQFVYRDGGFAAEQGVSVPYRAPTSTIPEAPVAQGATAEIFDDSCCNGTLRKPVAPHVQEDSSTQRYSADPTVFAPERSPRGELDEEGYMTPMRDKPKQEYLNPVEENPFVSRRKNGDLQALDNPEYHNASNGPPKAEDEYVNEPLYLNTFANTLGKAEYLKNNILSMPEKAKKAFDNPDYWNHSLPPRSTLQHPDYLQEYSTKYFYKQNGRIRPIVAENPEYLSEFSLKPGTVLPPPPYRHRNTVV
Sequence of Calcium/calmodulin-dependent protein kinase type II subunit alpha (Q9UQM7 whole entry): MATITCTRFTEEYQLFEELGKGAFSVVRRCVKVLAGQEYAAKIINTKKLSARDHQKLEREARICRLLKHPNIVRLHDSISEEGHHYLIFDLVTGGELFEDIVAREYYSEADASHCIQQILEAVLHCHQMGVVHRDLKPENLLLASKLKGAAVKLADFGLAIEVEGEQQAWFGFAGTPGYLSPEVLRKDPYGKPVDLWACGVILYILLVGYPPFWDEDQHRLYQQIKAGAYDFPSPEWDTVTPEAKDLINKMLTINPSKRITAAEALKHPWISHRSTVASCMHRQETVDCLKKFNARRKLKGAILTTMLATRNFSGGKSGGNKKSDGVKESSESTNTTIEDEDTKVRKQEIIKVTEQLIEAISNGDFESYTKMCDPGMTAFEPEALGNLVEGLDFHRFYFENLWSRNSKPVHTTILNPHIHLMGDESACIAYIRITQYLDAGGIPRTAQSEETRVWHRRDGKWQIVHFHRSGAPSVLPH
Sequence of Serine/threonine-protein kinase PLK1 (P53350 whole entry): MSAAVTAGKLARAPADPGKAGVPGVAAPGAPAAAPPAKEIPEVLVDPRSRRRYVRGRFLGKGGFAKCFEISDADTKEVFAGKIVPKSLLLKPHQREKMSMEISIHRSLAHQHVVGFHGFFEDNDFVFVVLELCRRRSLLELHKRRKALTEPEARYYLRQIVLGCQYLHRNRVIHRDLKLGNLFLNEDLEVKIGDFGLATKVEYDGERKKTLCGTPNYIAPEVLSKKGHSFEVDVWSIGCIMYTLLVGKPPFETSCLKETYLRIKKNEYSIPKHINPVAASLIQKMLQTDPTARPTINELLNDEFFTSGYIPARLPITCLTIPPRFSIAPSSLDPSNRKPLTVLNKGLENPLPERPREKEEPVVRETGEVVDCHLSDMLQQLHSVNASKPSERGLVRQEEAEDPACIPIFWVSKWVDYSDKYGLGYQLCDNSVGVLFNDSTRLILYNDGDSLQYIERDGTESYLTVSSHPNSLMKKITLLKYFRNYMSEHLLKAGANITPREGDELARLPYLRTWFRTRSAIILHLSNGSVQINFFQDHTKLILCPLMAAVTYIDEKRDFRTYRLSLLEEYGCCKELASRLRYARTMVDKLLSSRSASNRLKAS

Regarding `Cn1cc(-n2cnc3c(NCc4nc5cc(Cl)c(Cl)cc5[nH]4)nc(N4CCOCC4)nc32)cn1`, the % of inhibition in assay [1] is -63.6%.

With `COCC(=O)NC/C=C/c1ccc2ncnc(Nc3ccc(Oc4ccc(C)nc4)c(C)c3)c2c1` [CP-724714], the % of control in assay [2] was 95%.

In turn, `Cc1cc(F)c(C(=O)Nc2cccc(-c3nncn3C(C)C)n2)cc1-n1cnc(C2CC2)c1` registered a % of control in assay [3] of 78%.

In assay [4], `COc1cc(Nc2nc(C)cc(-c3cnn4nc(OC)ccc34)n2)cc(C(F)(F)F)c1` yielded a % of control of 64%.

Consider `Cc1ccc(-c2ccc3c(ccc4sc5c(c43)NC[C@@H](C)NC5=O)n2)cn1`, for which, in assay [5], the IC50 is 70 nM.

In assay [6], `O[C@H]1CC[C@H](Nc2ncc3nc(Nc4c(F)cc(F)cc4F)n([C@H]4CCOC4)c3n2)CC1` displayed a % of control of 100%.

On to `CC(=O)Nc1cccc(-n2c(=O)n(C3CC3)c(=O)c3c(Nc4ccc(I)cc4F)n(C)c(=O)c(C)c32)c1`, for which the % of control in assay [7] came out at 101%.

`C=CC(=O)Nc1ccc(C(=O)Nc2[nH]nc3c2CN(C(=O)N[C@H](CN(C)C)c2ccccc2)C3(C)C)cc1` displayed a % of engagement in assay [8] of 54.4%.
